What was measured:
Type in all cases: functional
[1] = organism: Cavia porcellus; experiment: Agonistic effect on beta-FNA treated guinea pig ileum preparations (GPI)
[2] = organism: Cavia porcellus; experiment: Agonistic effect on untreated guinea pig ileum preparations (GPI)
[3] = kappa antagonistic effect on beta-FNA and alpha-CNA treated GPI (IC50 ratio=IC50 after treatment/IC50 before treatment)
[4] = kappa antagonistic effect on beta-FNA treated GPI (IC50 ratio=IC50 after treatment/IC50 before treatment)

| SMILES | IC50 [1] | IC50 [2] | IC50 ([1]; Cavia porcellus, Ileum) | IC50 ([2]; Cavia porcellus, Ileum) | Ratio [3] | Ratio [4] |
| --- | --- | --- | --- | --- | --- | --- |
| Oc1ccc2c3c1O[C@H]1[C@@H](N(CCCl)CCCl)CCC4(O)C(C2)N(CC2CC2)CCC314 (stereo partly specified) | 2.4 nM | 5.5 nM | – | – | – | – |
| CCOc1ccc2c(c1)C1(C)CCN(CC3CC3)C(C2=O)C1C (stereo unspecified) [ETHYLKETAZOCINE] | – | – | 0.69 nM | 0.72 nM | 10.1 | 1.21 |

— ChEMBL document CHEMBL1122357, “Alkylation of opioid receptor subtypes by alpha-chlornaltrexamine produces concurrent irreversible agonistic and irreversible antagonistic activities” (J Med Chem, 1983)
